# Results from ChEMBL document CHEMBL1123971, “Synthesis, platelet aggregation inhibitory activity, and in vivo antithrombotic activity of new 1,4-dihydropyridines” (J Med Chem, 1988).
# Several values for one entry are separate records, joined by “and”; a condition that tells them apart may be missing. Equal values may be shown once.
# Key:
# Format in all cases: functional
# Mus musculus [1] = organism: Mus musculus; assay: Dose required to protect 50% of tested mice against experimental antithrombosis.
# Oryctolagus cuniculus [2] = organism: Oryctolagus cuniculus; assay: Effect on 35 mM K+-induced contraction on rabbit aorta at a dose of 10e-7 mol/L
# Oryctolagus cuniculus [3] = organism: Oryctolagus cuniculus; assay: Effect on 35 mM K+-induced contraction on rabbit aorta at a dose of 10e-9 mol/L
# Oryctolagus cuniculus [4] = organism: Oryctolagus cuniculus; assay: Effect on 35 mM K+-induced contraction on rabbit aorta at a dose of 3*10e-8 mol/L
# Oryctolagus cuniculus [5] = organism: Oryctolagus cuniculus; assay: Effect on 35 mM K+-induced contraction on rabbit aorta at a dose of 3*10e-9 mol/L
# Oryctolagus cuniculus [6] = organism: Oryctolagus cuniculus; assay: Effect on 35 mM K+-induced contraction on rabbit aorta at a dose of 10e-8 mol/L
# Mus musculus [7] = organism: Mus musculus; assay: Effective dose of the compound required to protect […] tested mice against experimental antithrombosis
# Cavia porcellus [8] = organism: Cavia porcellus; assay: Effect on guinea pig artia (beats/min), at the a dose of 0 M
# Cavia porcellus [9] = organism: Cavia porcellus; assay: Effect on guinea pig artia (beats/min), at the a dose of 10e-6 M
# Cavia porcellus [10] = organism: Cavia porcellus; assay: Effect on guinea pig artia (beats/min), at the a dose of 10e-7 M
# Cavia porcellus [11] = organism: Cavia porcellus; assay: Effect on guinea pig artia (beats/min), at the a dose of 10e-9 M
# Cavia porcellus [12] = organism: Cavia porcellus; assay: Effect on guinea pig artia (beats/min), at the a dose of 10e-8 M
structure (smiles),measurement,setting,value
COC(=O)C1=C(C)NC(C)=C(C(=O)OC)C1c1ccccc1[N+](=O)[O-] [NIFEDIPINE],ED50,Mus musculus [1],6.93 µmol/kg and 2.4 mg/kg
same,Inhibition,Oryctolagus cuniculus [2],100%
same,Inhibition,Oryctolagus cuniculus [3],18.28%
same,Inhibition,Oryctolagus cuniculus [4],88.35%
same,Inhibition,Oryctolagus cuniculus [5],41.73%
same,Inhibition,Oryctolagus cuniculus [6],73.66%
CC1=NC(C)=C(C(=O)OCCNC(=O)c2ccccc2O)C(C)/C1=C(\O)OCCN1C(=O)c2ccccc2S1(=O)=O (stereo not given),ED50,Mus musculus [1],51.4 µmol/kg and 30 mg/kg
CCCCC1C(C(=O)OCCN2C(=O)c3ccccc3S2(=O)=O)=C(C)N=C(C)/C1=C(/O)OC (stereo not given),ED50,Mus musculus [1],78.4 µmol/kg and 37.3 mg/kg
CC(=O)Oc1ccccc1C(=O)O [ASPIRIN],ED30,Mus musculus [7],166.66 µM/kg
same,ED30,"Mus musculus [7]; Mus musculus, read-out: ED30",30 mg/kg
CO/C(O)=C1\C(C)=NC(C)=C(C(=O)OCCN2C(=O)c3ccccc3S2(=O)=O)C1C (stereo not given),ED50,Mus musculus [1],138 µmol/kg and 59.9 mg/kg
Clc1ccccc1CN1CCc2sccc2C1 [TICLOPIDINE],ED50,Mus musculus [1],152 µmol/kg and 40 mg/kg
OCCN(CCO)c1nc(N2CCCCC2)c2nc(N(CCO)CCO)nc(N3CCCCC3)c2n1 [DIPYRIDAMOLE],ED50,Mus musculus [1],143 µmol/kg and 72 mg/kg
CCO/C(O)=C1\C(C)=NC(C)=C(C(=O)OCN2C(=O)c3ccccc3S2(=O)=O)C1C (stereo not given),ED50,Mus musculus [1],134 µmol/kg and 58.3 mg/kg
CO/C(O)=C1\C(C)=NC(C)=C(C(=O)OCN2C(=O)c3ccccc3S2(=O)=O)C1C (stereo not given),ED50,Mus musculus [1],> 220 µmol/kg and > 100 mg/kg
CCOC(=O)C1=C(C)NC(C)=C(C(=O)OC)C1c1cccc([N+](=O)[O-])c1 (stereo not given) [NITRENDIPINE],Beats/min,Cavia porcellus [8],190
same,Control,Cavia porcellus [8],100%
same,Beats/min,Cavia porcellus [9],153
same,Control,Cavia porcellus [9],81%
same,Beats/min,Cavia porcellus [10],179
same,Control,Cavia porcellus [10],94%
same,Beats/min,Cavia porcellus [11],190
same,Control,Cavia porcellus [11],100%
same,Beats/min,Cavia porcellus [12],185
same,Control,Cavia porcellus [12],97.5%
